Measured values from US20260000794A1, “IN VIVO TRANSITION METAL DETECTION” (The University of Sydney, priority 2022, published 2026).
Entries after “also recorded” stand apart in the source; their conditions may differ.

Assays:
SH-SY5Y cells = experiment: Confocal microscopy of F—NpCul fluorescence in cells with copper loading or depletion (FIG. 4); assay type: cell-based, human
Protocol: SH-SY5Y cells were used, which are a human neuron-like cell line. SH-SY5Y cells were maintained at 37° C. in 5% CO2. Cells were cultured in Dulbecco's Modified Eagle's Medium (DMEM, Thermo Fisher Scientific) supplemented with 10% foetal calf serum (FCS, Thermo Fisher Scientific) and 2.5 mM L-glutamine (Sigma-Aldrich). Fluorobrite DMEM (FDMEM, Thermo Fisher Scientific) was supplemented with 10% FCS and 2.5 mM L-glutamine, unless otherwise stated.
For all imaging experiments, 1.5×10^5 cells were seeded into 35 mm glass bottom dishes (MatTek) and allowed to adhere overnight. 10 mM stock solutions of F—NpCul CuATSM were freshly prepared in DMSO. A 10 mM stock solution of BCS was freshly prepared in MilliQ water. For experiments cells were dosed with nothing (vehicle), 1 μL of 10 mM CuATSM stock in 1 mL DMEM or 10 μL of 10 mM BCS solution in 1 mL DMEM. […]
Images were obtained at 37° C. in a 5% CO2 atmosphere on an Olympus Fluo View FV3000 Confocal Laser Scanning Microscope, equipped with an Olympus 60× water objective (UPLSAPO60XW) and 405 and 640 nm lasers, unless otherwise stated. All samples were excited at 405 nm, and fluorescence emission collected from 510-610 nm. […] Data is presented as the mean fluorescence intensities of 40-50 cell clusters chosen as regions of interest from 10 images representative of each condition.

SWISS mice = experiment: DIVE microscopy of fluorescent emission in CuATSM-treated vs untreated mice after F—NpCul injection (FIG. 5, FIG. 6); assay type: in vivo, mouse; settings: 4 mg/kg F—NpCul i.v. tail vein, CuATSM 15 mg/kg orally daily for eight days
Protocol: (§1) In this work, anaesthetised SWISS mice underwent a craniotomy surgery to expose a region of parietal cortex. Imaging was performed through this cranial window with a water dipping objective lens. 4 mg/kg F—NpCul was i.v. injected through the tail vein after three minutes. F—NpCul was excited at 920 nm and emission was 504-577nm. “Treated” mice (n=3) were orally administered the copper-delivery compound CuATSM (15 mg/kg) daily for eight days to increase brain copper levels prior to imaging while control mice (n=3, “Untreated”) received no treatment. For each mouse at all time points, fluorescent emission per unit area (arbitrary units) from five representative regions of interest (ROIs) within vasculature and five ROIs in surrounding tissue was quantified from a projected image combining 130 μm depth. Baseline fluorescence from an image acquired prior to probe injection was subtracted from all fluorescent measurements which were then averaged at each time point. Comparison of average fluorescent emission intensity between control and CuATSM-treated mice was undertaken for a) brain tissue and b) vasculature. Unpaired t-tests with significance p<0.05 were performed to describe the temporal pattern of change. Error bars show mean ±SEM.
(§2) Anaesthetised SWISS mice underwent a craniotomy surgery to create a cranial window exposing parietal cortex. […]

mice = experiment: Observation of signs of toxicity in the in vivo studies; parameters: species or system mouse; settings: in vivo imaging studies, 4 mg/kg F—NpCul
Protocol: as §1, §2

## CCSCCN(CCSCC)Cc1cn(C(=O)OCCOCCNc2ccc3c4c(cccc24)C(=O)N(CCF)C3=O)cn1 [F—NpCul]
SH-SY5Y cells; 10 μM F—NpCul, cells treated with vehicle, 10 μM CuATSM (copper-loading) or 100 μM BCS (copper-depleting) for 1 h, P<0.001 v vehicle
  mean fluorescence intensity response to copper status: sensitive to both an accumulation and a deficiency of copper
SH-SY5Y cells; preliminary results
  bioavailability and cell uptake, reporting intracellular Cu(I) levels: bioavailable and can be taken up by cells to report intracellular Cu(I) levels
SWISS mice
  reported copper levels within the vasculature, treated vs untreated mice: equivalent
SWISS mice; parietal cortex, excitation 920 nm, emission 504-577 nm
  fluorescent signal in brain tissue, CuATSM-treated vs untreated mice: significantly higher; also recorded: Higher fluorescent signal is observed in CuATSM-treated mice compared to control
mice
  signs of toxicity following F—NpCul exposure: no signs of toxicity
